This note sets out measurements from ChEMBL document CHEMBL1137166, “A unidirectional crosslinking strategy for HIV-1 protease dimerization inhibitors” (Bioorg Med Chem Lett, 2004).

The target of experiment [1] is T1, Human immunodeficiency virus type 1 protease (Human immunodeficiency virus 1, UniProt Q72874). As to the kind of experiment: Inhibitory activity against Human immunodeficiency virus-1 protease.
The target of experiment [2] is Human immunodeficiency virus type 1 protease (Human immunodeficiency virus 1) (UniProt Q72874). Kind of experiment: Percent inhibition against Human immunodeficiency virus-1 protease at the concentration of 100 uM.
Experiment [3] addresses T1, Human immunodeficiency virus type 1 protease. As to the kind of experiment: Binding activity towards Human immunodeficiency virus-1 protease.

Where a SMILES comes first, the peptide text is derived from it. [ ]: non-standard residue; d: D form. The star is where a group is joined. ξ: configuration not given here. Tyr(3-NO2) = N[C@@H](Cc1ccc(O)c([N+](=O)[O-])c1)C(=O)O; C16 diacid = O=C(O)CCCCCCCCCCCCCCC(=O)*; 1Nal = N[C@@H](Cc1cccc2ccccc12)C(=O)O; Cha = N[C@@H](CC1CCCCC1)C(=O)O; Ile(3ξ) = CCC(C)[C@H](N)C(=O)O; aThr = C[C@H](O)[C@H](N)C(=O)O; Fumaroyl = O=C(O)/C=C/C(=O)*; 12Ado = NCCCCCCCCCCCC(=O)O Some results are limits rather than exact numbers.

Take `CCC(C)[C@H](NC(=O)CCCCCCCCCCCNC(=O)[C@H](NC(=O)[C@@H](Cc1ccccc1)NC(=O)/C=C/C(=O)O)C(N)=O)C(=O)N[C@@H](Cc1ccccc1)C(N)=O` (stereo partly drawn): the IC50 in experiment [1] is 9.7 µM.
As for `CC(C)C[C@H](NC(=O)CCCCCCCCCCCCCCC(=O)N[C@@H](CC(N)=O)C(=O)N[C@@H](Cc1ccccc1)C(=O)O)C(=O)N[C@@H](Cc1ccccc1)C(N)=O` (HELM PEPTIDE1{L.F.[am]}|PEPTIDE2{N.F}|CHEM1{[O=C(CCCCCCCCCCCCCCC(=O)[*:2])[*:1]]}$PEPTIDE1,CHEM1,1:R1-1:R1|PEPTIDE2,CHEM1,1:R1-1:R2$$$V2.0), the IC50 in experiment [1] is 11 µM.
In turn, `CCC(C)[C@H](NC(=O)CCCCCCCCCCCNC(=O)[C@@H](NC(=O)[C@H](Cc1ccccc1)NC(C)=O)C(N)=O)C(=O)N[C@@H](Cc1ccccc1)C(N)=O` (stereo partly drawn) returned an inhibition in experiment [2] of 15%.
`CCC(C)[C@H](NC(=O)CCCCCCCCCCCNC(=O)[C@@H](NC(=O)[C@H](Cc1ccccc1)NC(=O)/C=C/C(=O)O)C(N)=O)C(=O)N[C@@H](Cc1ccccc1)C(N)=O` (stereo partly drawn): the IC50 in experiment [1] was determined as 12 µM. In experiment [3], this molecule had a Ki of 4.9 µM.
In experiment [2], `CCC(C)[C@H](NC(=O)CCCCCCCCCCCNC(=O)[C@@H](NC(=O)[C@H](Cc1ccccc1)NC(=O)CCC(=O)O)C(N)=O)C(=O)N[C@@H](Cc1ccccc1)C(N)=O` (stereo partly drawn) yielded an inhibition of less than 50%.
Molecule `CCC(C)[C@H](NC(=O)CCCCCCCCCCCNC(=O)[C@@H](NC(=O)[C@@H](N)Cc1ccccc1)C(N)=O)C(=O)N[C@@H](Cc1ccccc1)C(N)=O` (stereo partly drawn) showed an inhibition in experiment [2] of 35%.
`CCC(C)[C@H](NC(=O)CCCCCCCCCCCNC(=O)[C@H](Cc1ccc(O)c([N+](=O)[O-])c1)NC(=O)[C@H](CC1CCCCC1)NC(=O)/C=C/C(=O)O)C(=O)N[C@@H](Cc1ccc(O)c([N+](=O)[O-])c1)C(N)=O` (stereo partly drawn) (Fumaroyl-[Cha][Tyr(3-NO2)][12Ado][Ile(3ξ)][Tyr(3-NO2)]-NH2) registered an IC50 in experiment [1] of 247 µM. Also, the Ki in experiment [3] turned out to be 222 µM.
The molecule `CCC(C)[C@H](NC(=O)CCCCCCCCCCCNC(=O)[C@H](Cc1ccc(O)c([N+](=O)[O-])c1)NC(=O)[C@H](CC1CCCCC1)NC(=O)/C=C/C(=O)O)C(=O)N[C@@H](Cc1ccccc1)C(N)=O` (stereo partly drawn) (Fumaroyl-[Cha][Tyr(3-NO2)][12Ado][Ile(3ξ)]F-NH2) showed an IC50 in experiment [1] of 327 µM. Besides, the affinity in experiment [3], expressed as Ki, was 199 µM.
In experiment [1], `NC(=O)CCCCCCCCCCCNC(=O)[C@H](Cc1ccc(O)c([N+](=O)[O-])c1)NC(=O)[C@H](CC1CCCCC1)NC(=O)/C=C/C(=O)O` gave an IC50 of 20 µM.
With `CCC(C)[C@H](NC(=O)CCCCCCCCCCCNC(=O)[C@H](Cc1ccc(O)c([N+](=O)[O-])c1)NC(=O)[C@H](CC1CCCCC1)NC(=O)/C=C/C(=O)O)C(N)=O` (stereo partly drawn), the IC50 in experiment [1] turned out to be 3.7 µM.
Molecule `NC(=O)[C@H](Cc1ccc(O)c([N+](=O)[O-])c1)NC(=O)[C@H](CC1CCCCC1)NC(=O)/C=C/C(=O)O` yielded an inhibition in experiment [2] of less than 20%.
On to `CC[C@H](C)[C@H](NC(=O)[C@H](CCC(N)=O)NC(=O)[C@@H]1CCCN1C(=O)CCCCCCCCCCCCCCC(=O)N[C@@H](CO)C(=O)N[C@H](C(=O)N[C@@H](CC(C)C)C(=O)N[C@@H](CC(N)=O)C(=O)N[C@@H](Cc1ccccc1)C(=O)O)[C@@H](C)O)C(=O)N[C@H](C(=O)N[C@@H](CC(C)C)C(=O)N[C@@H](Cc1c[nH]c2ccccc12)C(=O)O)[C@H](C)O`, for which the IC50 in experiment [1] was determined as 0.35 µM. In experiment [3], the affinity, expressed as Ki, was 0.22 µM.
`CCC(C)[C@H](NC(=O)CCCCCCCCCCCNC(=O)[C@@H](NC(=O)[C@@H](Cc1ccccc1)NC(=O)/C=C/C(=O)O)C(N)=O)C(=O)N[C@@H](Cc1ccccc1)C(N)=O` (stereo partly drawn) gave an IC50 in experiment [1] of 18.8 µM.
Molecule `CC(C)C[C@H](NC(=O)[C@@H](NC(=O)CCCCCCCCCCCCCCC(=O)N[C@@H](CC(N)=O)C(=O)N[C@@H](Cc1ccccc1)C(=O)O)[C@H](C)O)C(=O)N[C@@H](Cc1ccccc1)C(N)=O` ({Phe-Asn-C16 diacid}-[aThr]-Leu-Phe-NH2) gave an IC50 in experiment [1] of 5.4 µM. The molecule further displayed a Ki in experiment [3] of 3 µM.
As to `CCC(C)[C@H](NC(=O)CCCCCCCCCCCNC(=O)[C@H](NC(=O)[C@H](Cc1ccccc1)NC(=O)/C=C/C(=O)O)C(N)=O)C(=O)N[C@@H](Cc1ccccc1)C(N)=O` (stereo partly drawn), half-maximal inhibition in experiment [1] (IC50) was put at 14.2 µM.
`CCC(C)[C@H](NC(=O)CCCCCCCCCCCNC(=O)[C@H](Cc1ccc(O)c([N+](=O)[O-])c1)NC(=O)[C@H](CC1CCCCC1)NC(=O)/C=C/C(=O)O)C(=O)N[C@@H](Cc1cccc2ccccc12)C(N)=O` (stereo partly drawn) (Fumaroyl-[Cha][Tyr(3-NO2)][12Ado][Ile(3ξ)][1Nal]-NH2) had an IC50 in experiment [1] of 361 µM. Further, in experiment [3], the affinity corresponds to a Ki of 209 µM.
Turning to `CCC(C)[C@H](NC(=O)CCCCCCCCCCCNC(=O)CNC(=O)[C@@H](CC(N)=O)NC(=O)[C@H](Cc1ccccc1)NC(=O)/C=C/C(=O)O)C(=O)N[C@@H](Cc1ccccc1)C(N)=O` (stereo partly drawn), in experiment [1], the IC50 came out at 16.8 µM.
